Data reported in ChEMBL document CHEMBL4043168, “The design and SAR of a novel series of 2-aminopyridine based LRRK2 inhibitors” (Bioorg Med Chem Lett, 2017).

Columns and labels:
MDR1 = assay: Apparent permeability in MDCK cells harboring MDR1; assay type: ADME, cell-based, Canis lupus familiaris; settings: dog
[1] = target: Leucine-rich repeat serine/threonine-protein kinase 2 (Homo sapiens, UniProt Q5S007); assay: Inhibition wild type LRRK2 (unknown origin) Ser935 phosphorylation in HEK293 cells; assay type: cell-based
[2] = target: RAC-beta serine/threonine-protein kinase (Homo sapiens) (UniProt P31751); assay: Inhibition of AKT2 labeling at ATP binding site (GTFGKVILVR) in human PBMC at 1 uM
Sequence of RAC-beta serine/threonine-protein kinase (Homo sapiens) (P31751 whole entry): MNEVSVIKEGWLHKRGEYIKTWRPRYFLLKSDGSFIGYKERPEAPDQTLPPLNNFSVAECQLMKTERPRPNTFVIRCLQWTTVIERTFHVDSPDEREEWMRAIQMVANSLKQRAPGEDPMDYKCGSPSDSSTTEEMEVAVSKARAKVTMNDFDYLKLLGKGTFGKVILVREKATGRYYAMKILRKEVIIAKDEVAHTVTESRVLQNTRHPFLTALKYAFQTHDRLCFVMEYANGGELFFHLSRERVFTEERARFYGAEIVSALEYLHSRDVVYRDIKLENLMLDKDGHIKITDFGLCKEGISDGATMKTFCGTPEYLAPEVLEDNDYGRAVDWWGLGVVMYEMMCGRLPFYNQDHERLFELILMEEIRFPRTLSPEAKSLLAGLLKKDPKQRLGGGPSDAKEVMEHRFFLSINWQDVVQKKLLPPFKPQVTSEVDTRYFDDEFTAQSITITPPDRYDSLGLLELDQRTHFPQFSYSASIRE

[3] = target: 5'-AMP-activated protein kinase catalytic subunit alpha-2 (Homo sapiens) (UniProt P54646); assay: Inhibition of AMPKa2 labeling at conserved Lys1 (VAVKILNR) in human PBMC at 1 uM
Sequence of 5'-AMP-activated protein kinase catalytic subunit alpha-2 (Homo sapiens) (P54646 whole entry, looked up): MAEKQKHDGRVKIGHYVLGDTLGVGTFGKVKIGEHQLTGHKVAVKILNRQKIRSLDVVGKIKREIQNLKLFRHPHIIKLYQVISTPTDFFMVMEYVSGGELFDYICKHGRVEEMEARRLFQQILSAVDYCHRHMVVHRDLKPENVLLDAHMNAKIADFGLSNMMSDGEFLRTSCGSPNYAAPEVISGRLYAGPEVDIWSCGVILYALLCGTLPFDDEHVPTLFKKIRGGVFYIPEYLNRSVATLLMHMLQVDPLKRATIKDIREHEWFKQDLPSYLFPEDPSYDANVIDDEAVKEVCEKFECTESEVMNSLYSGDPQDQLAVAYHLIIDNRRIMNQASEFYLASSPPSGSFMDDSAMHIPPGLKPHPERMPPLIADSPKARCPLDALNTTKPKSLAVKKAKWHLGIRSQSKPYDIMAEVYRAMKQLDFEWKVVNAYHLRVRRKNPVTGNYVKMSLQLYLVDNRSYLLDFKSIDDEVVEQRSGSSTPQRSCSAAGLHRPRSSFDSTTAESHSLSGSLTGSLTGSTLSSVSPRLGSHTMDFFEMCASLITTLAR

[4] = target: Serine/threonine-protein kinase B-raf (Homo sapiens) (UniProt P15056); assay: Inhibition of BRAF labeling at conserved Lys2 (DLKSNNIFLHEDLTVK) in human PBMC at 1 uM
[5] = target: Eukaryotic elongation factor 2 kinase (Homo sapiens) (UniProt O00418); assay: Inhibition of eEF2K ATP binding site (YIKYNSNSGFVR) in human PBMC at 1 uM
[6] = target: eIF-2-alpha kinase GCN2 (Homo sapiens) (UniProt Q9P2K8); assay: Inhibition of GCN2 conserved Lys2 (DLKPVNIFLDSDDHVK) in human PBMC at 1 uM
[7] = target: Tyrosine-protein kinase JAK1 (Homo sapiens) (UniProt P23458); assay: Inhibition of JAK1 domain1 (QLASALSYLEDKDLVHGNVCTKNLLLAR) in human PBMC at 1 uM
[8] = target: NUAK family SNF1-like kinase 2 (Homo sapiens) (UniProt Q9H093); assay: Inhibition of NuaK2 conserved Lys1 (LVAIKSIR) in human PBMC at 1 uM
[9] = target: Mitogen-activated protein kinase 12 (Homo sapiens) (UniProt P53778); assay: Inhibition of p38g conserved Lys2 (DLKPGNLAVNEDCELK) in human PBMC at 1 uM
[10] = target: Phosphatidylinositol 5-phosphate 4-kinase type-2 gamma (Homo sapiens) (UniProt Q8TBX8); assay: Inhibition of PIP4K2C ATP binding site (TLVIKEVSSEDIADMHSNLSNYHQYIVK) in human PBMC at 1 uM
[11] = target: T1, Serine/threonine-protein kinase ULK3 (Homo sapiens) (UniProt Q6PHR2); assay: Inhibition of ULK3 conserved Lys2 (NISHLDLKPQNILLSSLEKPHLK) in human PBMC at 1 uM
T1 sequence (whole entry): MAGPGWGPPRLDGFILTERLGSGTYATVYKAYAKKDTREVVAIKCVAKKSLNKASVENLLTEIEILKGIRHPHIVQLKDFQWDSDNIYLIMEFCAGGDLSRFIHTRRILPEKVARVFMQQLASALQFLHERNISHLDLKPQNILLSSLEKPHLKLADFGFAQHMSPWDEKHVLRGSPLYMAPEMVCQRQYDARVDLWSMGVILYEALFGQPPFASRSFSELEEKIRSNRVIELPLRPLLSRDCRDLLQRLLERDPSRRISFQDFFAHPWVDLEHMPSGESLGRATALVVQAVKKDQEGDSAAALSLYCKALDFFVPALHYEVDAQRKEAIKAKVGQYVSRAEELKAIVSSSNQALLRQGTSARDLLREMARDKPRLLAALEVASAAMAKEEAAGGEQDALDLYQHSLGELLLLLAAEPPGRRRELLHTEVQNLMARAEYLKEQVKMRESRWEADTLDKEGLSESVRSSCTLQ

[12] = target: RAC-beta serine/threonine-protein kinase (Homo sapiens) (UniProt P31751); assay: Inhibition of AKT2 labeling at ATP binding site (GTFGKVILVR) in human PBMC at 0.1 uM
[13] = target: 5'-AMP-activated protein kinase catalytic subunit alpha-2 (Homo sapiens) (UniProt P54646); assay: Inhibition of AMPKa2 labeling at conserved Lys1 (VAVKILNR) in human PBMC at 0.1 uM
[14] = target: Serine/threonine-protein kinase Chk2 (Homo sapiens) (UniProt O96017); assay: Inhibition of CHK2 labeling at conserved Lys2 (DLKPENVLLSSQEEDCLIK) in human PBMC at 0.1 uM
[15] = target: Mitogen-activated protein kinase 8 (Homo sapiens) (UniProt P45983); assay: Inhibition of JNK1 conserved Lys2 (DLKPSNIVVK) in human PBMC at 0.1 uM
[16] = target: Dual specificity mitogen-activated protein kinase kinase 1 (Homo sapiens) (UniProt Q02750); assay: Inhibition of MAP2K1 conserved Lys2 (IMHRDVKPSNILVNSR) in human PBMC at 0.1 uM
Sequence of Dual specificity mitogen-activated protein kinase kinase 1 (Homo sapiens) (Q02750 whole entry): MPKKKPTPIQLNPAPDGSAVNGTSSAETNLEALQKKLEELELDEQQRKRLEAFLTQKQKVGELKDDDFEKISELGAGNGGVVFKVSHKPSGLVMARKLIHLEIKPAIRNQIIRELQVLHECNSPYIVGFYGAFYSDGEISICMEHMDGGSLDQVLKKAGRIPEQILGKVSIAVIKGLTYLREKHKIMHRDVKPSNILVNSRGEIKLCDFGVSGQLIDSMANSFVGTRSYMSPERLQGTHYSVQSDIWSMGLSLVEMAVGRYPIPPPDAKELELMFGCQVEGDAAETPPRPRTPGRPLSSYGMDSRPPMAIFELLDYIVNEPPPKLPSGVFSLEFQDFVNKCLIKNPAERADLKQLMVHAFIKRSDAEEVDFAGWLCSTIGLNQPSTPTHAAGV

[17] = target: MAP/microtubule affinity-regulating kinase 3 (Homo sapiens) (UniProt P27448); assay: Inhibition of MARK3 conserved Lys1 (EVAIKIIDK) in human PBMC at 0.1 uM
Sequence of MAP/microtubule affinity-regulating kinase 3 (Homo sapiens) (P27448 whole entry, looked up): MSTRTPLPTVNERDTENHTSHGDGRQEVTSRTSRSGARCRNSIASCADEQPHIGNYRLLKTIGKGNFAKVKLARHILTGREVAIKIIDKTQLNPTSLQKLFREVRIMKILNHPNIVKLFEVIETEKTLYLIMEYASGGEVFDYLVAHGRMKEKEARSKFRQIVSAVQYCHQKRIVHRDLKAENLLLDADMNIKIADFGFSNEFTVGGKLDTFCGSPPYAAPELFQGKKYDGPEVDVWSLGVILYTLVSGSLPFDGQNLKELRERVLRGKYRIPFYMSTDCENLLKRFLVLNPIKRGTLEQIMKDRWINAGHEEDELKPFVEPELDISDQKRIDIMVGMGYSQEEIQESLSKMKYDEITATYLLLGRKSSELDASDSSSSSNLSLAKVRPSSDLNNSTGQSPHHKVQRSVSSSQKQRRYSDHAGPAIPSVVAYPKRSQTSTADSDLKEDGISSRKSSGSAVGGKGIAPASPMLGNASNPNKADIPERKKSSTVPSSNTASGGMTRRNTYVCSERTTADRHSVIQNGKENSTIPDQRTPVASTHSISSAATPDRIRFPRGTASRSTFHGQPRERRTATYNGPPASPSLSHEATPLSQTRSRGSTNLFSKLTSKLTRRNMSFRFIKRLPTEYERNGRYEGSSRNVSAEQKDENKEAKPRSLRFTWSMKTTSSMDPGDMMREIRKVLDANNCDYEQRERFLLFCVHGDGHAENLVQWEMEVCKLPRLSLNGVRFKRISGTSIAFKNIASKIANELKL

Homo sapiens = organism: Homo sapiens; assay: Inhibition of p70S6K conserved Lys2 (DLKPENIMLNHQGHVK) in human PBMC at 0.1 uM
[18] = target: Phosphatidylinositol 5-phosphate 4-kinase type-2 alpha (Homo sapiens) (UniProt P48426); assay: Inhibition of PIP4K2A ATP binding site (AKELPTLKDNDFINEGQK) in human PBMC at 0.1 uM
Sequence of Phosphatidylinositol 5-phosphate 4-kinase type-2 alpha (Homo sapiens) (P48426 whole entry): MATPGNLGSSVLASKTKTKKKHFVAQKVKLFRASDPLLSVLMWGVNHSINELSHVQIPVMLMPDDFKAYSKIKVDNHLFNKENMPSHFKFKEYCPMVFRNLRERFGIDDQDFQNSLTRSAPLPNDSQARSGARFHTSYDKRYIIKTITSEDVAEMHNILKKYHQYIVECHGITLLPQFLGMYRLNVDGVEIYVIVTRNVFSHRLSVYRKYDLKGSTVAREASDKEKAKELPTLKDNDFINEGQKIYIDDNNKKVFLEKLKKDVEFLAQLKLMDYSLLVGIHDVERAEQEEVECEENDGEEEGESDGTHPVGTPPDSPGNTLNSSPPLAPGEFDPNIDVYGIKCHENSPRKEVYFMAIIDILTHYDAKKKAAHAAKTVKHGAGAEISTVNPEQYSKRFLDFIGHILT

[19] = target: STE20-like serine/threonine-protein kinase (Homo sapiens) (UniProt Q9H2G2); assay: Inhibition of SLK conserved Lys2 (DLKAGNILFTLDGDIK) in human PBMC at 0.1 uM
[20] = target: Myosin light chain kinase, smooth muscle (Homo sapiens) (UniProt Q15746); assay: Inhibition of smMLCK conserved Lys1 (VWAGKFFK) in human PBMC at 0.1 uM
[21] = target: Serine/threonine-protein kinase WNK1 (Homo sapiens) (UniProt Q9H4A3); assay: Inhibition of Wnk1 activation Loop (IGDLGLATLKR) in human PBMC at 0.1 uM; settings: pooled result: one value given for 4 cell lines, strains, targets or settings
Sequence of Serine/threonine-protein kinase WNK1 (Homo sapiens) (Q9H4A3 whole entry, looked up): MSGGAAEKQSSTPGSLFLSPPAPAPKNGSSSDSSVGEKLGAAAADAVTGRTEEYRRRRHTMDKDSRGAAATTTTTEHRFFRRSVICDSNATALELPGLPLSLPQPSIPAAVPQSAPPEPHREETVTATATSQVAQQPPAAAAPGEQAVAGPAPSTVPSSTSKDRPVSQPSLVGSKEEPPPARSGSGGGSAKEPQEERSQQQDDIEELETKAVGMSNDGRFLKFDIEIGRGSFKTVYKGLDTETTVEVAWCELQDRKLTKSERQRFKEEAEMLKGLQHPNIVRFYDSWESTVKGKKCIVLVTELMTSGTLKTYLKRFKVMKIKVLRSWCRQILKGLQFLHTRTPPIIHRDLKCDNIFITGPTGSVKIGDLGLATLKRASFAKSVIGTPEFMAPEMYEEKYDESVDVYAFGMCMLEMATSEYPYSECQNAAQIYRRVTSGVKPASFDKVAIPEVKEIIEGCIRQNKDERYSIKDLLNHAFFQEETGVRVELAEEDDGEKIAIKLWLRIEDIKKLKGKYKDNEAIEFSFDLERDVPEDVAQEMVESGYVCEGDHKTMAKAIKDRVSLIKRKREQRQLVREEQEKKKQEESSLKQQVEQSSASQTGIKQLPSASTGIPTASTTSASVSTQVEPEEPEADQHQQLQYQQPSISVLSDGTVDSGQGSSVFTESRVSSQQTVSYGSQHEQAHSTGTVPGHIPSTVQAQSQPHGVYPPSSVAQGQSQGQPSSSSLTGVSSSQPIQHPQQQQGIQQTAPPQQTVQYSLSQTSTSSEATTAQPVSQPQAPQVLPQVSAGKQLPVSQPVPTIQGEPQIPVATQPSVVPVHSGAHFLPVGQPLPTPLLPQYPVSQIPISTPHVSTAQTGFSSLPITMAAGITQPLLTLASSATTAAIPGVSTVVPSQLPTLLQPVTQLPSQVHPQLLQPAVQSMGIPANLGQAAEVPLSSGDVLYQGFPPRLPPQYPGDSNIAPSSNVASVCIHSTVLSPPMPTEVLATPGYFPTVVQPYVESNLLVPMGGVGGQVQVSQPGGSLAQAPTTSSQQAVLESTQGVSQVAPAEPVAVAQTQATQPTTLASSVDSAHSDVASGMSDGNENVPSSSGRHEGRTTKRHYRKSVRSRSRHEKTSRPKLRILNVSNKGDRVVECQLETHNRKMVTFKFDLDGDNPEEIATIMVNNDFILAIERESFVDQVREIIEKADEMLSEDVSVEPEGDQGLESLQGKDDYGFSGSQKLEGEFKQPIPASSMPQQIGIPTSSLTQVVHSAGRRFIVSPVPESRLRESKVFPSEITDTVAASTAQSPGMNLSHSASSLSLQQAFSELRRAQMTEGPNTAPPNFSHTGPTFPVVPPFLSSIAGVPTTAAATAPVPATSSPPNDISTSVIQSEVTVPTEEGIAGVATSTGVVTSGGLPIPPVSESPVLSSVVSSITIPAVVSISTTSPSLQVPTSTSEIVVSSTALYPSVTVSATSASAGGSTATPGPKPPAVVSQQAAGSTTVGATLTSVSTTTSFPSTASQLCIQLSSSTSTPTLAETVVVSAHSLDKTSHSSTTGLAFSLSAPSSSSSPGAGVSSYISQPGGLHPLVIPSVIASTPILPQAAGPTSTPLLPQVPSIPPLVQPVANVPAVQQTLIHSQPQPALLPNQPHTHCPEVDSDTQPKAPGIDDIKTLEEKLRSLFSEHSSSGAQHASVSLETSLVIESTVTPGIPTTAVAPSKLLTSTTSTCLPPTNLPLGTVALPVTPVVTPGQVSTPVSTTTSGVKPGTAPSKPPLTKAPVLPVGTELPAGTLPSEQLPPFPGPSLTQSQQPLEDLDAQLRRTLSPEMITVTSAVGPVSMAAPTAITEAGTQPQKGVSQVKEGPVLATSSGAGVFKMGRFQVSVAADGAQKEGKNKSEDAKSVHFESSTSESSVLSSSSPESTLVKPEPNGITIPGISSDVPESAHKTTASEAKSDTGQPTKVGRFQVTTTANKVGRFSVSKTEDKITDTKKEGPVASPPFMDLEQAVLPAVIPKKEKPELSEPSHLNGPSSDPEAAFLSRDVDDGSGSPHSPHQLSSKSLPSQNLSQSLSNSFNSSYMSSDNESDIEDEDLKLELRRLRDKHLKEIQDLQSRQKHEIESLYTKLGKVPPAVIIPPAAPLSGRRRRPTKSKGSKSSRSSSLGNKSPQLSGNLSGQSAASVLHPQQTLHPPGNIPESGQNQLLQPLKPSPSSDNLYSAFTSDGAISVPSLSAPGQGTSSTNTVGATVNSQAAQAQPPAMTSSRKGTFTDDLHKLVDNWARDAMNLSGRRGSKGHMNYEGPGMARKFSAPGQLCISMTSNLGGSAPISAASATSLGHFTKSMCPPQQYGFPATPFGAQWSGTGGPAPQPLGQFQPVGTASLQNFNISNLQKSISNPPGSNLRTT

[22] = target: Mitogen-activated protein kinase kinase kinase kinase 2 (Homo sapiens) (UniProt Q12851); assay: Inhibition of GCK conserved Lys2 (DIKGANLLLTLQGDVK) in human PBMC at 0.1 uM

CC(C)n1cc(-c2cc(-c3ccc(CN4CCOCC4)cc3)cnc2N)nn1
Papp (MDR1): 263 nm/s | IC50 [1]: 2.1 µM | inhibition [2]: 20.5% | inhibition [3]: 17.3% | inhibition [4]: 11.4% | inhibition [5]: -6.7% | inhibition [6]: -2% | inhibition [7]: 1.8% | inhibition [8]: -8.4% | inhibition [9]: 14% | inhibition [10]: 6.4% | inhibition [11]: 40.8% | inhibition [12]: 17.1% | inhibition [13]: 7.7% | inhibition [14]: -4.8% | inhibition [15]: 25.1% | inhibition [16]: -5.6% | inhibition [17]: -6.7% | inhibition (Homo sapiens): 25.3% | inhibition [18]: 10.3% | inhibition [19]: 24.4% | inhibition [20]: 29.6% | inhibition [21]: 21.4% | inhibition [22]: 10.9%
